How the values were obtained:
[1] = biological target: Histamine H3 receptor (Cavia porcellus, UniProt Q9JI35); experiment: Inhibition of [3H]N-alpha-methylhistamine binding to guinea pig brain Histamine H3 receptor
[2] = biological target: Histamine H1 receptor (Cavia porcellus, UniProt P31389); experiment: Binding affinity to H-1 receptor was determined in guinea pig brain tissue using [3H]- […] ligand
[3] = biological target: Histamine H3 receptor (Cavia porcellus) (UniProt Q9JI35); details: Ileum
Description: (§1) In vitro effective concentration for H-3-mediated contraction of guinea pig ileum

[4] = biological target: Histamine H1 receptor (Cavia porcellus) (UniProt P31389); details: Ileum
Description: In vitro effective concentration for H-1-mediated contraction of guinea pig ileum

[5] = biological target: Histamine H1 receptor (Cavia porcellus) (UniProt P31389); experiment: H1-mediated bronchoconstrictor effect after intravenous administration in anesthetized guinea pig; assay type: functional, organism-based; details: Lung
[6] = biological target: Histamine H1 receptor (Cavia porcellus) (UniProt P31389); details: Ileum; remark: listed apart in the source
Description: In vitro effective concentration for H1-mediated contraction of guinea pig ileum

[7] = biological target: Histamine H3 receptor (Cavia porcellus) (UniProt Q9JI35); details: Ileum; remark: listed apart in the source
Description: as §1

Histamine H3 receptor, sequence (Q9JI35 whole entry): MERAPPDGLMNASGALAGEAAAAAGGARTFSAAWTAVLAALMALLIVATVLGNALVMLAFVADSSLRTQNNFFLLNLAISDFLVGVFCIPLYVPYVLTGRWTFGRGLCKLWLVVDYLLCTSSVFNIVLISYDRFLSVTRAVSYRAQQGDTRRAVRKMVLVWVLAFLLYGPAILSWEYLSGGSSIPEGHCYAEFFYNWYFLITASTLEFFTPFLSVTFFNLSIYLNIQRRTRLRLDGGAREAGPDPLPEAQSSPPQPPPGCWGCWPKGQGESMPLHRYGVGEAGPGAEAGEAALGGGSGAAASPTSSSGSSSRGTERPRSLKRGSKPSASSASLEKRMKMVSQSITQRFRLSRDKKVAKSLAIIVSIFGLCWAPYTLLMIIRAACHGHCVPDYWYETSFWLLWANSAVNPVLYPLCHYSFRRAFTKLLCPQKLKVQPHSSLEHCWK
Histamine H1 receptor (Cavia porcellus), sequence (P31389 whole entry): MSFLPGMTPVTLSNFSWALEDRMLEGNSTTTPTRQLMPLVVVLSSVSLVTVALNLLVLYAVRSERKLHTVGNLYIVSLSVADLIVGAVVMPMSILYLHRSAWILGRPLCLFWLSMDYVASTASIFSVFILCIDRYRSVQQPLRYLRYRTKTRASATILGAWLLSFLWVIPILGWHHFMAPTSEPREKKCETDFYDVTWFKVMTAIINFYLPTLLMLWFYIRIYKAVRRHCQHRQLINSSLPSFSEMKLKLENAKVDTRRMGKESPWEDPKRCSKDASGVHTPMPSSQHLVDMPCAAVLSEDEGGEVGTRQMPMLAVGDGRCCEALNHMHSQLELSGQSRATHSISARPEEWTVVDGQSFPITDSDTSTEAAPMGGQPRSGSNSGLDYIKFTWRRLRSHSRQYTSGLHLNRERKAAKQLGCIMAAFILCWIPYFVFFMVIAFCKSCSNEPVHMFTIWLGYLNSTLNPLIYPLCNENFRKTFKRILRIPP
Histamine H3 receptor (Cavia porcellus), sequence (Q9JI35 whole entry): as the sequence (Q9JI35 whole entry) above
Histamine H1 receptor, sequence (P31389 whole entry): as the sequence (P31389 whole entry) above

For `c1ccc(C[C@H]2NCC[C@@H]2c2c[nH]cn2)cc1`, the Ki [1] was > 2000 nM.
`CC[C@H]1NCC[C@@H]1c1cnc[nH]1` showed a Ki [1] of 150 nM.
`C[C@H]1CNC[C@H]1c1c[nH]cn1` was tested, and the Ki [1] was 3 nM.
In the case of `C[C@H]1NCC[C@@H]1c1c[nH]cn1`, the Ki [1] is reported as 3 nM.
In the case of `C[C@H]1CNC[C@@H]1c1c[nH]cn1`, the Ki [2] is reported as > 10000 nM, the pD2 [3] is reported as 7.5 and the pD2 [4] is reported as < 4. It also gave a Ki [1] of 2.3 nM.
In the case of `c1nc(C2CCNC2)c[nH]1` (stereo not given), the ED50 [5] is reported as 0.3 mg/kg and the Ki [1] is reported as 2 nM.
In the case of `C[C@H]1NCCC[C@@H]1c1cnc[nH]1`, the Ki [1] is reported as > 2000 nM.
`C[C@]1(c2c[nH]cn2)CCNC1` gave a Ki [1] of 170 nM.
Work on `C[C@@H]1NCC[C@@H]1c1c[nH]cn1` yielded a Ki [1] of 59 nM.
`C[C@H]1C[C@H](c2cnc[nH]2)CN1` was tested, and the Ki [1] was 76 nM.
In the case of `C[C@@H]1CNC[C@H]1c1cnc[nH]1`, the Ki [1] is reported as 5 nM.
With `C[C@H]1NC[C@@H]1c1c[nH]cn1` the ED50 [5] was > 0.3 mg/kg and the Ki [1] was 7 nM.
For `C[C@@H](N)Cc1c[nH]cn1`, the Ki [2] was > 10000 nM, the pD2 [6] was 5.4 and the pD2 [7] was 8.2.
